# Source: patent publication US12098217B2, “Fusion peptides as antimicrobial agents” (CENTRE NATIONAL DE LA RECHERCHE SCIENTIFIQUE, priority 2019, dated 2024)
# Like-named read-outs stand apart in the source and are kept apart here. Square brackets hold non-standard residues; d marks the D form. Peptide text beside a SMILES is read from it. * marks the point of attachment. 5FAM = O=C1OC2(c3ccc(O)cc3Oc3cc(O)ccc32)c2ccc(C(=O)*)cc21; Cha = N[C@@H](CC1CCCCC1)C(=O)O
# Experiments:
# [1] = test system: E. coli ATCC 25922 (DSM 1103) strain; type: cell-based; details: ATCC 25922, 36 h
# Procedure: (§1) E. coli strains were cultivated on either agar or liquid 1× Mueller Hinton broth unless specified. MIC assays were performed in duplicate in 96-well microtiter plates on the basis of the protocol recommended by the Clinical and Laboratory Standards Institute. Briefly, a mix of 5-6 fresh (less than 36 hours) colonies grown on MH agar plates were inoculated in 3 ml of MH broth and incubated for about 16 h at 37° C. under agitation. 30 μl of this saturated culture were inoculated in 3 ml of fresh medium and allowed to grow until OD600 nm of about 0.6-0.8. Dilution to an OD600 nm of 0.002 was made in MH broth. Within a time laps not exceeding 30 min, 50 μl of this cell suspension was added to 50 μl of MH broth (containing or not the peptide/antibiotic diluted in MH broth) in wells of a 96-well round bottom microwell plate (Greiner; final cell density about 2 to 5×10^5 cfu/ml). Plates were incubated at 37° C. for 18-24 h and final turbidity of each well was measured at 620 nm using a Multiskan FC microplate reader (Thermo Scientific). MIC was defined as the minimal antibiotic concentration that result in no increase of turbidity at that time. Each MIC determination was performed in duplicate and at least in two independent experiments. Plating of 75 μl of the content of the wells of interest on LB Agar plates was used to determine the MBC that is defined by a decrease of at least 99.9% of cell viability as compared to the number of viable cells in the inoculum (about 2 to 5×10^4 cfu).
# The antimicrobial activities of these peptides have been tested against the E. coli ATCC 25922 (DSM 1103) strain in 1× Mueller-Hinton broth as mentioned above.
# The antimicrobial activities of these peptides and controls have been tested against the E. coli ATCC 25922 (DSM 1103) strain in 1× Mueller-Hinton broth.
# [2] = test system: E. coli 70S ribosome (^Ec70S); experiment: ITC, peptide interaction with E. coli 70S ribosome; type: binding
# Procedure: E. coli MRE600 cells were grown at 37° C. in LB medium until OD^600=1. Cells were centrifuged at 4° C., and pellets were resuspended in buffer A (20 mM Tris HCl pH 7.5; 200 mM NH4Cl; 20 mM MgCl2; 0.1 mM EDTA; 6 mM β-mercaptoethanol) and lysed using a French press at 1.6 kbar. The crude lysate was centrifuged (18 200 rpm) for 30 mn at 4° C. The supernatant was further centrifuged (47000 rpm) at 4° C. for 4 hours and the pellet resuspended in 12.5 ml of buffer A. This solution was laid on a 30% sucrose cushion and centrifuged (34 000 rpm) for 19 hours at 4° C. The ribosome pellet was resuspended in 12.5 ml buffer B (20 mM Tris HCl pH 7.5; 50 mM NH4Cl; 10 mM MgCl2; 0.1 mM EDTA; 6 mM β-mercaptoethanol) and centrifuged again (18 200 rpm) for 1 hour at 4° C. The supernatant was concentrated on Centrikon 100K (Millipore) and washed extensively with ITC 70S buffer. Ribosome concentration was determined by UV absorption at 260 nm. Samples were snap frozen in liquid nitrogen and kept at −80° C.
# (§2) ITC experiments were performed on a iTC200 (Microcal Malvern Panalytical) or PEAQ-ITC instrument (Microcal Malvern Panalytical). The E. coli SC were washed extensively with ITC buffer (R1 buffer: 10 mM Hepes pH 7.4, 0.15 M NaCl, 3 mM EDTA) on Centrikon 10K at 4° C. before ITC experiments. […] Similarly, E. coli 70S ribosome particles were also washed extensively with ITC 70S buffer (50 mM Tris HCl pH7.5, 30 mM KCl, 70 mM NH4Cl, 7 mM MgCl2, 1 mM DTT, 5% glycerol) on Centrikon 100K at 4° C. before ITC experiments. Peptides (100 to 400 μM) were titrated at 30° C. (303.15 K) in sequential injections (usually 2 μl each) into a SC (20 or 30 μM) or 70S (10 to 15 μM) solution. Data were corrected from control experiments in which peptides were injected in ITC buffer solution. Each titration was performed at least twice. Analyses of experimental data were performed with AFFINImeter software (https://www.affinimeter.com; S4S, Santiago de Compostela, Spain).
# The lack of interaction with the ribosome of E. coli has been measured by ITC at 30° C.:
# The interactions of these peptides with the E. coli SC (beta ring) and the ribosome were measured by ITC at […]: […]
# [3] = test system: E. coli D22 strain; experiment: microbe, parasite or virus in culture; type: cell-based
# Description: E. coli strain D22 (F-, IpxC101, proA23, lac-28, tsx-81, trp-30, his-51, tufA1, rpsL173(strR), ampCp-1 was purchased at E. coli Genetic Stock Center (Yale University) and used in the determination of MIC and in the peptide penetration assays. E. coli ATCC23724 cells were used to infect D. melanogaster flies. 70S ribosomes were purified from the E. coli MRE600 strain (Accession AY140951) and BL21 (DE3) pLys strain was used for production of the DnaN protein.
# as §1
# [4] = target: T1, E. coli SC (^EcSC, beta ring, DnaN) (Escherichia coli, UniProt P0A988); experiment: ITC, peptide interaction with E. coli sliding clamp; type: binding
# T1 construct: inferred from the pET15b vector and the Ni-NTA/imidazole purification; made in house; host or cells: E. coli BL21 (DE3) pLys
# Procedure: The DnaN protein was expressed from plasmids pET15b, containing the dnaN gene from E. coli, transfected in BL21 (DE3) pLys E. coli strain. Cells were grown in LB at 37° C. to OD 0.5, then induced by IPTG (0.1 mM) at 28° C. overnight. DnaN protein was first enriched on a Ni-NTA column, eluted with an imidazole step (300 mM) and further purified on a Source Q column in buffer containing 20 mM Tris HCl pH 7.5, 0.5 mM EDTA and 10% glycerol, using a gradient from 0 to 0.5 M NaCl. After a final ultracentrifugation (45K, 1 h, 20° C.), soluble proteins were concentrated on a Centricon 30K (Millipore) in the same buffer and stored at 4° C. in 2 M ammonium sulfate.
# as §2, with “[…] […]” for “Peptides (100 to 400 μM) were titrated at 30° C. (303.15 K) in sequential injections (usually 2 μl each) into a SC (20 or 30 μM) or 70S (10 to 15 μM) solution.”
# [5] = ITC, 30° C., E. coli ribosome, FITC-Onc112 series
# [6] = ITC 30° C., Table 2B, ^Ec70S, Ni = no specific interaction
# [7] = ITC 30° C., Table 2B, ^Ec70S, Ni = no specific interaction, FITC peptides (*) values not well defined
# [8] = ITC 30° C. (303.15 K), Table 2A, ^EcSC, Ni = no specific interaction
# [9] = ITC 30° C., Table 2A, ^EcSC, Ni = no specific interaction
# [10] = E. coli D22, Mueller Hinton broth, range of at least 2 independent experiments
# T1 sequence (P0A988 whole entry): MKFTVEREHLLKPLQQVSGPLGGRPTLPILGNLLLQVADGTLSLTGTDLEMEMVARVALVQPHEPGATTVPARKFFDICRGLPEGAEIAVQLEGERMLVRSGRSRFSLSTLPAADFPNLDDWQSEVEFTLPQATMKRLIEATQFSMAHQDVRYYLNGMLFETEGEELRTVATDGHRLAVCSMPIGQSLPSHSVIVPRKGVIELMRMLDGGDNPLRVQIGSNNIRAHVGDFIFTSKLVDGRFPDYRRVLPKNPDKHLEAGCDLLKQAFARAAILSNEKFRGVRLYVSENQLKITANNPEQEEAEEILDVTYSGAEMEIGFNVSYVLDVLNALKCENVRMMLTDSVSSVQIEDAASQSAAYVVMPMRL
smiles,measurement,setting,value
CC[C@H](C)[C@H](NC(=O)[C@@H](CCCNC(=N)N)NC(=O)[C@H](CCCNC(=N)N)NC(=O)[C@@H]1CCCN1C(=O)[C@@H]1CCCN1C(=O)[C@H](CCCNC(=N)N)NC(=O)[C@@H]1CCCN1C(=O)[C@H](CCCNC(=N)N)NC(=O)[C@@H]1CCCN1C(=O)[C@H](CC(C)C)NC(=O)[C@H](Cc1ccc(O)cc1)NC(=O)[C@@H]1CCCN1C(=O)[C@@H]1CCCN1C(=O)[C@H](CCCCN)NC(=O)[C@H](CC(=O)O)NC(=O)[C@@H](NC(=O)c1ccc2c(c1)C(=O)OC21c2ccc(O)cc2Oc2cc(O)ccc21)C(C)C)C(=O)N[C@@H](Cc1ccc(O)cc1)C(=O)N[C@@H](CC(N)=O)C(=O)N[C@H](CCCNC(=N)N)C(N)=O [CA3-124] (5FAM-VDKPPYLPRPRPPR[dR]IYN[dR]-NH2),MIC,[1],32 to 64 µM
same,Kd,[2]; [5],7700 nM
same,ΔG (kcal/mol),[2]; [5],−7.1 (±0.4) kcal/mol
same,ΔH,[2]; [5],-22.6 kcal/mol
CC[C@H](C)[C@H](NC(=O)[C@@H]1CCCN1C(=O)[C@H](CCCNC(=N)N)NC(=O)[C@@H]1CCCN1C(=O)[C@@H]1CCCN1C(=O)[C@@H](NC(=O)[C@@H]1CCCN1C(=O)[C@H](CCCNC(=N)N)NC(=O)[C@@H]1CCCN1C(=O)[C@H](CC(C)C)NC(=O)[C@H](Cc1ccc(O)cc1)NC(=O)[C@H](CO)NC(=O)CNC(=O)[C@H](CCCCN)NC(=O)[C@H](CC(=O)O)NC(=O)[C@@H](N)C(C)C)[C@@H](C)O)C(=O)N[C@@H](Cc1ccc(O)cc1)C(=O)N[C@@H](CC(N)=O)C(=O)N[C@@H](CCCNC(=N)N)C(=O)N[C@@H](CC(N)=O)C(=O)NCC(=O)N1CCC[C@H]1C(=O)N[C@@H](CCCNC(=N)N)C(=O)N[C@@H](CCC(N)=O)C(=O)N[C@@H](CC1CCCCC1)C(=O)N[C@@H](CC(=O)O)C(=O)N[C@@H](CC(C)C)C(=O)N[C@@H](Cc1ccccc1)C(=O)O [Peptide P116] (H-VDKGSYLPRPTPPRPIYNRNGPRQ[Cha]DLF-OH),MBC,[3]; D22 strain,8 µg/mL
same,MIC (μM),[3]; D22 strain,1.2 to 2.4 µM
same,MIC (μg/ml),[3]; D22 strain,4 to 8 µg/mL
same,"antibacterial activity, in words","[3]; E. coli D22, microdilution broth assay",no increase in the activity
same,"interaction with ^Ec70S, in words",[2]; ITC 30° C.,efficiently interact
same,Kd,[2]; [6],37 nM
same,ΔG,[2]; [7],-10.3 kcal/mol
same,ΔH,[2]; [7],-22.3 kcal/mol
same,−TΔS,[2]; [7],12 kcal/mol
same,affinity for the ribosome relative to affinity for SC,"[2]; from Table 2, ^Ec70S versus ^EcSC",three times higher affinity
same,"interaction with ^EcSC, in words",[4]; ITC 30° C.,as efficiently as P7 alone
same,ΔH,[4]; [8],-13.9 kcal/mol
same,ΔG,[4]; [9],-9.61 kcal/mol
same,−TΔS,[4]; [9],4.3 kcal/mol
CC[C@H](C)[C@H](NC(=O)[C@@H]1CCCN1C(=O)[C@H](CCCNC(=N)N)NC(=O)[C@@H]1CCCN1C(=O)[C@@H]1CCCN1C(=O)[C@@H](NC(=O)[C@@H]1CCCN1C(=O)[C@H](CCCNC(=N)N)NC(=O)[C@@H]1CCCN1C(=O)[C@H](CC(C)C)NC(=O)[C@H](Cc1ccc(O)cc1)NC(=O)[C@H](CO)NC(=O)CNC(=O)[C@H](CCCCN)NC(=O)[C@H](CC(=O)O)NC(=O)[C@@H](N)C(C)C)[C@@H](C)O)C(=O)N[C@@H](Cc1ccc(O)cc1)C(=O)N[C@@H](CC(N)=O)C(=O)N[C@@H](CCCNC(=N)N)C(=O)N[C@@H](CC(N)=O)C(=O)NCC(=O)N1CCC[C@H]1C(=O)N[C@@H](CCCNC(=N)N)C(=O)N[C@@H](CC1CCCCC1)C(=O)N[C@@H](Cc1ccccc1)C(=O)N[C@@H](CCC(N)=O)C(=O)N[C@@H](CC(C)C)C(=O)N[C@@H](CC(=O)O)C(=O)O [Peptide P188],MIC (μM),[3]; D22 strain,1.2 to 2.4 µM
same,MIC (μg/ml),[3]; D22 strain,4 to 8 µg/mL
same,Kd,[2]; [6],75.8 nM
same,ΔG,[2]; [7],-9.89 kcal/mol
same,ΔH,[2]; [7],-15.4 kcal/mol
same,−TΔS,[2]; [7],5.5 kcal/mol
same,"interaction with ^EcSC, in words",[4]; ITC 30° C.,fail to interact
same,ΔH (kcal/mole),[4]; [8],Ni
same,Kd (nM),[4]; [9],Ni
same,ΔG (kcal/mole),[4]; [9],Ni
same,−TΔS (kcal/mole),[4]; [9],Ni
"CN(C)[C@@H]1C(=O)C(C(N)=O)=C(O)[C@@]2(O)C(=O)C3=C(O)c4c(O)cccc4[C@@](C)(O)[C@H]3C[C@@H]12 [Tetracyclin, reference compound]",MIC (μM),[3]; [10],0.56 to 1.12 µM
same,MIC (μg/ml),[3]; [10],0.25 to 0.5 µg/mL
same,MBC,"[3]; E. coli D22, decrease of at least 99.9% of cell viability",0.5 µg/mL
"CC1(C)S[C@@H]2[C@H](NC(=O)[C@H](N)c3ccccc3)C(=O)N2[C@H]1C(=O)O [Ampicillin, reference compound]",MIC,"[3]; Escherichia coli, D22STRAIN, E. coli D22, Mueller Hinton broth, range of at least 2 independent experiments, read-out: MIC",22.9 to 45.8 µM
same,MIC,"[3]; Escherichia coli, D22STRAIN, E. coli D22, Mueller Hinton broth, range of at least 2 independent experiments, read-out: MIC (μg/ml)",8 to 16 µg/mL
same,MBC,"[3]; Escherichia coli, D22STRAIN, E. coli D22, decrease of at least 99.9% of cell viability, read-out: MBC",16 µg/mL
